Source: US20070179113A1, “GM-CSF gene therapy for Crohn's disease using an improved regulated expression system” (Schering Aktiengesellachaft, priority 2005, published 2007)

Tests used:
[1] = Luciferase reporter gene assay for activity of purified mIFN-β protein; format: cell-based
Protocol: Specifically, the gene encoding mIFN-β was cloned into a pCEP4 expression vector (Invitrogen). The expression plasmid encoding mIFN-β was transiently transfected into 293E cells (Edge Biosystems) using X-tremeGene Ro-1539 Transfection Reagent (Roche). Murine IFN-β protein was purified from the medium by ion-exchange chromatography and by hydrophobic-interaction chromatography. The product was sialyzed and concentrated against dilution buffer (50 mM sodium acetate, pH 5.5, 150 mM sodium chloride, and 5% polypropylene glycol) and sterile filtered. Aliquots of the purified protein were stored at −80° C. The activity of the purified protein was assessed using a luciferase reporter gene assay (Hardy et al. (2001) Blood 97:473-482), using a commercial mIFN-β reference standard from Access Biomedical (San Diego, Calif.). The specific activity of the purified protein was 2×10^8 units/mg.
The positive control used for this study was Prednisolone, 2.5 mg/kg, (Sigma, St. Louis) administered by IP injection twice daily, beginning on day 1, until the end of the study. For mIFN-β protein delivery, the mice were given SC injections of purified recombinant mIFN-β protein every other day, starting on day 1 of the study (100,000 or 300,000 IU per animal per injection in 100 ul vehicle buffer). […]

acute EAE in SJL mice = assay: Mouse acute EAE model, gene-based delivery of mIFN-β; format: in vivo; conditions: 100,000 Units s.c. every other day
IP-10 = IP-10 plasma level after bolus mIFN-β protein (ELISA); format: in vivo, C57BL/6 mice
Protocol: (§1) C57BL/6 mice were administered 15, 150, or 500 ng of purified recombinant mIFN-β protein (specific activity=2.0×10^8 units/mg) by either i.v. (via tail vein) or i.m. injection (n=3 mice per group). The mice were bled at 2, 4, 6, 12, 24, and 48 hours post-injection, and the plasma levels of IP-10 and JE were measured by ELISA (R&D Systems).

JE = JE plasma level after bolus mIFN-β protein (ELISA); format: in vivo, C57BL/6 mice
Protocol: as §1

[2] = tested on: Mx1 RNA in murine L929 cells; assay: Mx1 RNA induction in vitro in L929 cells (TaqMan RT-PCR); format: cell-based
Protocol: FIG. 5 illustrates Mx1 RNA induction in vitro (in L929 cells) by mIFN-β. L929 cells were seeded at 5×10^5 cells in 6 well plates and stimulated with increasing amounts of purified recombinant mIFN-β protein. Four hours after treatment the cells were harvested, RNA isolated, and Mx1 RNA quantitated by TaqMan analysis. Mx1 RNA expression is plotted as the fold increase relative to GAPDH RNA.
A quantitative PCR/RT-PCR assay was developed to quantitate the levels of Mx1 mRNA in murine PBMC's. Specifically, peripheral blood mononuclear cells (PBMCs) were isolated from mice treated with either mIFN-β protein or following gene-based delivery of the mIFN-β gene. Blood samples obtained from treated mice were centrifuged on a ficoll cushion for 25 minutes at 2,000 rpm. Purified PBMCs were pelleted and RNA for the Mx1 assay was purified using the “RNAeasy” mini extraction kit from Qiagen. The RNA was stored in H2O at −80° C. Mx1 RT-PCR was performed using TaqMan® chemistry and analysis was done on the Applied Biosystems (ABI) PRISM® 7700 Sequence Detection instrument. For reverse transcription of the RNA and amplification of cDNA, the “One-step TaqMan® RNA” kit from ABI was used. […] The samples were analyzed with an Mx1-specific probe/primer combination. Mx1 expression was normalized to GAPDH expression measured in parallel using a standard assay from ABI. […]

Mx1 RNA = Mx1 RNA induction in PBMCs after bolus injection of mIFN-β protein; format: in vivo, C57BL/6 mice
Protocol: FIG. 6 illustrates Mx1 RNA induction following i.v. (A) or i.m. injection (B) of mIFN-β protein. C57BL/6 mice were administered 15, 150, or 500 ng of purified recombinant mIFN-β protein (specific activity-2.0×10^8 units/mg) by either i.v. (via tail vein) or i.m. injection (n=3 mice per group). At the specified time points post-injection mice were bled, and RNA was isolated from PBMCs. Mx1 RNA was measured by quantitative RT-PCR. The fold increase in Mx1 RNA is expressed relative to GAPDH values measured in the same samples. The controls include naive mice (N), and mice injected with the vehicle buffer only followed by Mx1 analysis at 2 hours (V2 h) or 4 h (V4 h) post-injection. Each column represents the mean value +/− standard deviation.
A quantitative PCR/RT-PCR assay was developed to quantitate the levels of Mx1 mRNA in murine PBMC's. Specifically, peripheral blood mononuclear cells (PBMCs) were isolated from mice treated with either mIFN-β protein or following gene-based delivery of the mIFN-β gene. Blood samples obtained from treated mice were centrifuged on a ficoll cushion for 25 minutes at 2,000 rpm. Purified PBMCs were pelleted and RNA for the Mx1 assay was purified using the “RNAeasy” mini extraction kit from Qiagen. The RNA was stored in H2O at −80° C. Mx1 RT-PCR was performed using TaqMan® chemistry and analysis was done on the Applied Biosystems (ABI) PRISM® 7700 Sequence Detection instrument. For reverse transcription of the RNA and amplification of cDNA, the “One-step TaqMan® RNA” kit from ABI was used. RNA was reverse transcribed for 30 minutes at 48° C. and the amplification was done in 40 cycles with a denaturation step at 95° C. for 30 seconds, and an annealing/elongation step at 60° C. for 1 minute. The samples were analyzed with an Mx1-specific probe/primer combination. Mx1 expression was normalized to GAPDH expression measured in parallel using a standard assay from ABI.
B. Bolus Injection of mIFN-β Protein Induces Transient Biomarker Response In Vivo: The biomarker response after bolus injection of purified recombinant mIFN-β was measured in these studies. […] The highest Mx1 expression levels were measured 2 hours after injection. […] At the 500 ng dose there was a diminished level of Mx1 RNA induction. This saturating effect has been observed in other studies in which high IFN-β levels lead to an apparent down-regulation of the bioresponse, perhaps due to down regulation of the IFN type I receptor (see e.g., Mager, D E and Jusko, W J (2002) Pharm Res 19:1537-43). Mx1 RNA expression in the i.v. injected mice also peaked at approximately 2 hours post-injection and dropped rapidly thereafter.
This is the first time that the expression of Mx1 RNA has been used as a biomarker to follow the activity of mIFN-β in mice. […] However, the upregulation is short term and rapidly drops from high expression levels to background within 12-24 hours.

## mIFN-β: purified recombinant murine interferon-beta protein expressed in 293E cells
[1]
  specific activity of the purified protein: 2×10^8 units/mg
Acute EAE in SJL mice
  clinical scores compared to vehicle control: significantly decreased clinical scores
IP-10; each of three doses
  time by which plasma IP-10 dropped to background: ≤ 24 h
IP-10; high dose delivered i.v.
  increase of IP-10 levels: 3000 fold
IP-10; i.v. or i.m.
  time of strong induction of IP-10 after administration: 2 h
JE; each of three doses
  time by which plasma JE dropped to background: ≤ 24 h
JE; i.v. or i.m.
  time of strong induction of JE after administration: 2 h
[2]
  increase in the level of Mx1 RNA: 100 fold
[2]; 4 hours treatment
  EC50 of Mx1 RNA induction: approximately 50 pg/ml
Mx1 RNA; 15, 150 or 500 ng, i.v. or i.m.
  induction of Mx1 RNA expression relative to vehicle injected mice: 25- to 50 fold
Mx1 RNA; bolus protein
  time within which Mx1 upregulation drops to background: 12 to 24 h
Mx1 RNA; i.m.
  time beyond which no Mx1 RNA levels above background were detected: ≤ 12 h
Mx1 RNA; i.v.
  dose giving the highest Mx1 induction: 150 ng
  time of peak Mx1 RNA expression post-injection: approximately 2 hours
Mx1 RNA; i.v. or i.m.
  time of highest Mx1 expression levels after injection: 2 h
